# Literature values, collected in article PMC9863691, “A Novel Ferroptosis Inhibitor UAMC-3203, a Potential Treatment for Corneal Epithelial Wound” (Pharmaceutics, 2022).
# What was measured:
# [1] = test system: ferroptosis; parameters: method as in PMID 30354101; details: read-out: in vitro potency IC50 (ferroptosis); cited from earlier work
# [2] = test system: human corneal epithelial cell line; parameters: method as in PMID 34535730; details: after exposure to cigarette smoke and heated tobacco products; cited from earlier work
# [3] = human, microsomes; cited from earlier work
smiles,measurement,setting,value
"CCOC(=O)c1ccc(NC2CCCCC2)c(N)c1 [Fer-1, Ferrostatin-1, reference compound]",IC50,[1],33 nM
same,effect on cell death and cell viability,[2],reduced cell death and improved cell viability
same,t1/2 in human microsome,[3],6 min
